{"source": "paper PMC8875392", "about": "“Design and Characterization of Myristoylated and Non-Myristoylated Peptides Effective against Candida spp. Clinical Isolates” (International Journal of Molecular Sciences, 2022)", "key": {"[1]": {"test_system": "C. glabrata clinical isolates", "format": "cell-based, Candida glabrata", "conditions": "16 h", "experimental": "(§1) The antifungal activity of AMPs was determined against 50 clinical isolates, 10 for each of the following Candida species: C. albicans, C. tropicalis, C. glabrata, C. parapsilosis, and C. auris. The latter were derived from patients with positive blood cultures in four hospitals in India, with known resistance profiles to fluconazole, voriconazole, and echinocandins. Yeast cells were grown in Brain Heart Infusion (BHI) medium (Sigma-Aldrich, Gillingham, UK) for 16 h at 37 °C in a 150-rpm orbital shaker. Cells were then sub-inoculated in a fresh BHI medium and grown to an optical density (OD) of 0.3. The turbidity of the inoculum was adjusted to 0.5 McFarland and diluted 1:500 in RPMI 1640 broth, corresponding to around […].\n(§2) Minimal inhibitory concentrations (MICs) were determined by Broth microdilution susceptibility tests, according to The Clinical and Laboratory Standards Institute (CLSI) international guidelines. A fungal suspension of 0.5 MacFarland was diluted 1:500 in RPMI 1640 broth and incubated in 96 multi-well plates containing AMPs at different concentrations ranging from 0.125 to 256 μg/mL. In this range of concentration, lipopeptides were completely soluble. […] The MIC90 represents the value at which ≥90% of the strains within a test population were inhibited."}, "[2]": {"test_system": "C. parapsilosis clinical isolates", "format": "cell-based, Candida parapsilosis", "conditions": "clinical isolates, 16 h", "experimental": "as §1, §2"}, "rabbit erythrocytes": {"test_system": "rabbit erythrocytes", "conditions": "5 µM", "procedure": "The hemolytic assay was performed on rabbit erythrocytes (Rockland) maintained in Alsever’s solution (Innovative Research). Briefly, after the removal of Alsever’s solution, the erythrocytes were resuspended in PBS and counted in a hemocytometer. A suspension of 5,000,000 red blood cells was incubated with four dilutions (from 5 µm to 50 µm) of the six peptides in a 96-well microplate. As a negative control, erythrocytes were incubated without the peptides, while as a positive control, erythrocyte was added with triton 10% v/v. The plate was incubated at 37 °C for 2 h and subsequently centrifuged at 1200 rpm × 3 min to separate the pellet from the supernatant. The absorbance of the supernatant was measured at 492 nm. Each point was made in triplicate. The relative OD compared to the positive control defined the percentage of hemolysis [71]. Statistical analysis was performed using two-way ANOVA analysis followed by Bonferroni’s post-test."}, "[3]": {"test_system": "C. auris clinical isolates", "format": "cell-based, Candida auris", "conditions": "clinical isolates, 16 h", "experimental": "as §1, §2"}, "[4]": {"test_system": "C. albicans clinical isolates", "format": "cell-based, Candida albicans", "conditions": "16 h", "experimental": "as §1, §2"}, "[5]": {"test_system": "C. tropicalis clinical isolates", "format": "cell-based, Candida tropicalis", "conditions": "clinical isolates, 16 h", "experimental": "as §1, §2"}, "[6]": {"test_system": "Galleria mellonella larvae", "experiment": "In vivo peptide toxicity in Galleria mellonella model", "conditions": "uninfected larvae, groups of ten, peptide 640 µg/mL, single injection, 30 °C", "experimental": "Multidrug-resistant C. auris was chosen as a representative species for in vivo studies. […] Groups of ten G. mellonella larvae were infected with C. auris and treated with the Pep-B and Myr-B peptides at a concentration of 640 µg/mL (about 400 µM).\nTen larvae (250–320 mg each) were selected at random for each step in the procedure. Any larvae with darkening of the cuticle were discarded. The test compounds and yeast were injected into the hemocoel in water buffer through the last left proleg (Insumed 30G Pic, Italy, syringe volume 0.5 mL, needle size 30G). The larvae were incubated in the dark for 3 days, and mortality was recorded daily.\nFor the peptide efficacy experiment, ten larvae were injected into the last left proleg with a pre-determined infective dose of yeast and the dose of peptides at the same time in a final volume of 10 μL and incubated at 30 °C. Each step in the procedure included six groups of 10 larvae: C. auris-infected larvae (10^7 CFU), infected and treated larvae with peptide B (640 μg/mL), infected and treated larvae with peptide Myr-B (640 μg/mL), treated larvae with peptide B (640 μg/mL), treated larvae with peptide Myr-B (640 μg/mL), and vehicle-injected control (water). The mortality was recorded daily for 3 days."}}, "note": "Where no end group is shown, it is not given here.", "data": [{"sequence": "WFGKLYRGITK [Pep-A]", "values": [{"measurement": "MIC", "setting": "[1]", "result": "> 256", "unit": "µg/mL"}, {"measurement": "MIC90", "setting": "[1]", "result": ">256", "unit": "µg/mL"}, {"measurement": "MIC", "setting": "[2]", "result": "> 256", "unit": "µg/mL"}, {"measurement": "MIC90", "setting": "[2]", "result": ">256", "unit": "µg/mL"}, {"measurement": "hemolysis", "setting": "rabbit erythrocytes", "result": 0.1, "unit": "%"}, {"measurement": "MIC90", "setting": "[3]", "result": ">256", "unit": "µg/mL"}, {"measurement": "MIC", "setting": "[4]", "result": "> 256", "unit": "µg/mL"}, {"measurement": "MIC90", "setting": "[4]", "result": ">256", "unit": "µg/mL"}, {"measurement": "MIC90", "setting": "[5]", "result": ">256", "unit": "µg/mL"}]}, {"sequence": "WRGITKVVKKV [Pep-B]", "values": [{"measurement": "MIC", "setting": "[1]", "result": "> 256", "unit": "µg/mL"}, {"measurement": "MIC90", "setting": "[1]", "result": ">256", "unit": "µg/mL"}, {"measurement": "MIC", "setting": "[2]", "result": "> 256", "unit": "µg/mL"}, {"measurement": "MIC90", "setting": "[2]", "result": ">256", "unit": "µg/mL"}, {"measurement": "MIC90", "setting": "[3]", "result": ">256", "unit": "µg/mL"}, {"measurement": "MIC", "setting": "[4]", "result": "> 256", "unit": "µg/mL"}, {"measurement": "MIC90", "setting": "[4]", "result": ">256", "unit": "µg/mL"}, {"measurement": "Peptide toxicity, DAY 1 Dead", "setting": "[6]", "result": 3}, {"measurement": "Peptide toxicity, DAY 2 Dead", "setting": "[6]", "result": 5}, {"measurement": "Peptide toxicity, DAY 3 Dead", "setting": "[6]", "result": 9}, {"measurement": "MIC90", "setting": "[5]", "result": ">256", "unit": "µg/mL"}]}, {"sequence": "WVVKKVKGLLK [Pep-C]", "values": [{"measurement": "MIC", "setting": "[1]", "result": "> 256", "unit": "µg/mL"}, {"measurement": "MIC90", "setting": "[1]", "result": ">256", "unit": "µg/mL"}, {"measurement": "MIC", "setting": "[2]", "result": "> 256", "unit": "µg/mL"}, {"measurement": "MIC90", "setting": "[2]", "result": ">256", "unit": "µg/mL"}, {"measurement": "MIC90", "setting": "[3]", "result": ">256", "unit": "µg/mL"}, {"measurement": "MIC", "setting": "[4]", "result": "> 256", "unit": "µg/mL"}, {"measurement": "MIC90", "setting": "[4]", "result": ">256", "unit": "µg/mL"}, {"measurement": "MIC90", "setting": "[5]", "result": ">256", "unit": "µg/mL"}]}]}
